Source: ChEMBL document CHEMBL3507680, “University of Dundee, Gates Library screen for HepG2 cell viability”

Assay: Human HepG2 cell viability assay in 384 well format
Format: toxicity, cell-based
Parameters: dose 125 nL, time 70.5 hour; cytotoxicity at 70.5 h: concentration not given beside the values
Conditions: HepG2 cells, read-out: Inhibition

SMILES	cytotoxicity at 70.5 h [%]
COc1ccc(-c2noc([C@@H](C)NS(=O)(=O)CC(C)C)c2C(=O)O)cc1	-10.7
C[C@@H](NC(=O)c1cnccn1)c1c(-c2ccc(F)cc2)noc1C(=O)O	-1.48
CC(C)N1CCOC[C@H]1c1nc(C(C)(C)C)c[nH]1	0.329
CC(C)(C)c1coc([C@@H]2COCCN2Cc2ccccc2)n1	0.308
c1cc(-c2c[nH]c([C@@H]3COCCN3Cc3ncc[nH]3)n2)ccn1	1.76
c1cc(-c2c[nH]c([C@@H]3COCCN3Cc3csnn3)n2)ccn1	12.8
CC(C)NC(=O)N1CCCC2(CCCCN2)C1 (stereo not given)	-7.7
CCC(CC)C(=O)N1CCOC2(CNC2)C1	6.77
CC(=O)N1CC2C[C@]2(NC(=O)c2ccco2)C1 (stereo not given in full)	18.4
CC(C)NC(=O)N1CCC2(CC1)[C@@H]1CN(C(=O)N(C)C)C[C@@H]1C(=O)N2C	-7.71
CC(=O)N1CCC2(CC1)[C@@H]1CN(C(=O)N(C)C)C[C@@H]1C(=O)N2C	-7.5
CC(C)C(=O)NC1COC2(CCN(C(=O)c3ccc[nH]3)CC2)C1 (stereo not given)	-7.92
CC(=O)N1C[C@@H]2C(=O)N(C)C3(CCN(C(=O)C(C)C)CC3)[C@@H]2C1	-7.63
CCN1C(=O)[C@H]2CN(Cc3cccnc3)C[C@H]2C12CCN(C(C)=O)CC2	-10.7
CN(C)C(=O)CCC(=O)N1CCC2(CC1)COC2	12.8
CC(C)NC(=O)N1CCOC2(CNC2)C1	-4.25
O=C1CCC2(CCCN(C(=O)c3cnccn3)CC2)N1 (stereo not given)	1.43
CC(=O)N1CCC2(CC1)NC(=O)[C@H]1CN(Cc3cccnc3)C[C@H]12	18.4
O=C1CO[C@@H]2CN(C(=O)CCc3ccccc3)C[C@H]2N1	-5.06
CC(C)CC(=O)N1CCC2(CC1)[C@@H]1CN(C(=O)N(C)C)C[C@@H]1C(=O)N2C	-3.34
CC(=O)N1CCC2(CC1)[C@@H]1CN(Cc3cccnc3)C[C@@H]1C(=O)N2C	18.5
CC(=O)N1CCC2(CCN(CC(C)C)C2)C1 (stereo not given)	-5.21
O=C(N1CCCC1)N1C[C@@H]2CCNC[C@@H]21	-12
CCN1C(=O)C(c2ccccc2)CC12CCN(S(C)(=O)=O)CC2 (stereo not given)	-9.88
CN1CC[C@@H]2[C@@H]1CCN2Cc1ccc2c(c1)OCO2	-9.96

SMILES	cytotoxicity at 70.5 h [%]
Cc1cccc(C(=O)N2C[C@@H]3[C@H](CC(=O)N4CCCC4)[C@@H]3C2)n1	-6.1
CC(=O)N1CCCC2(CCN(C(=O)c3nn(C)c4ccccc34)CC2)C1	29.2
Cc1ccc(CN2CC3(CCN(S(=O)(=O)c4ccccc4)C3)C2)o1	24.3
Cc1oncc1C(=O)N1CC2CC1(C(=O)N(C)C)C2	-6.15
COCCC(=O)N1CCCC2(CCN(c3ccccc3)C2=O)C1 (stereo not given)	-11
CS(=O)(=O)N[C@@H]1COC[C@@H]2CN(Cc3ccoc3)C[C@@H]21	-11.6
CS(=O)(=O)N1CCc2sc(C(=O)NCc3ccccc3)cc21	-9.68
CCOCC1CN(C(=O)c2cccnc2)Cc2cnn(C)c21 (stereo not given)	-9.4
CC(=O)N1CCC2(C1)c1ccccc1S(=O)(=O)N2CCC(C)C (stereo not given)	-11.2
CC(C)Nc1nc(N2CCCC2)nc2c1CN(S(C)(=O)=O)CC2	-1.08
CN(C)CCNC(=O)c1cc2c(s1)CCN2S(C)(=O)=O	-9.71
CCOCC1CN(C(=O)C2CCOCC2)Cc2cnn(C)c21 (stereo not given)	17.4
COC(=O)CCC(=O)N1CCC2(CN(Cc3ccccc3)C2)C1	21
Cc1cc(C(=O)N[C@H](C)c2onc(-c3cccnc3)c2C(=O)O)c(C)o1	-2.03
CN(C)C(=O)N1Cc2ccccc2C2(CCNCC2)C1	28.5
CC(C)N1CCC2(CCNCC2)C1=O	-13
CN(C)C(=O)C1CCC2(CCNCC2)C1 (stereo not given)	-2.3
CCN1CC2(CNCCN(C(=O)Nc3ccccc3)C2)CC1=O (stereo not given)	2.39
CN(Cc1ccco1)C1CCC12CCN(C(=O)c1ccnnc1)CC2 (stereo not given)	5.1
Cc1cc(CN2CC[C@H]3[C@H]2CCN3S(C)(=O)=O)oc1C	-8.76
CN(Cc1ccco1)C1CCC12CCN(C(=O)c1ccco1)CC2 (stereo not given)	-0.239
CN1CC2(CNCCN(C(=O)Nc3ccccc3)C2)CC1=O (stereo not given)	-7.57
O=C(C1CCCC1)N1CCCC2(CCN(c3cnccn3)CC2)C1	-8.23
CC(C)C(=O)N1CC2(CCN(CC(C)(C)C)CC2)C1	47.3
CN(C)CCN1C[C@@H]2CN(S(=O)(=O)c3cccs3)C[C@@H]2C1=O	-10.9

SMILES	cytotoxicity at 70.5 h [%]
CCN1C[C@@H]2CN(Cc3cccs3)C[C@@H]2C1=O	-10.6
CCN1CC[C@@]2(C(=O)N(C)C)CCN(S(=O)(=O)c3ccccc3)CC[C@@H]12	-9.93
CCS(=O)(=O)N1CCC2(CCN(Cc3cccc(OC)c3)CC2)CC1	-2.06
CN1CCOC2(CCCN(C(=O)C3CCCCC3)C2)C1 (stereo not given)	34.5
N#Cc1ccc(C(=O)N2CC[C@H]3[C@H]2CCN3CC2CCOCC2)cc1	12.2
N#Cc1cccc(C(=O)N2CC[C@H]3[C@H]2CCN3CC2CC2)c1	19.2
Cc1nn(C)c(C)c1S(=O)(=O)N1C[C@@H]2C[C@@H](C)O[C@@H]2C1	-9.76
O=C(c1cccc(F)c1)N1C[C@H]2CN(Cc3ccccn3)C[C@H]2C1	-16
COCCN1C[C@@H]2CN(Cc3ccc(F)cc3)C[C@@H]2C1=O	-9.05
COCCN1CC[C@H]2CN(Cc3ccc(C)s3)C[C@@H]2C1=O	-9.57
COc1ccc(CC(=O)N2C[C@H]3CN(Cc4ccccn4)C[C@H]3C2)cc1	-3.26
Cc1nn(C)c(C)c1S(=O)(=O)N1CC[C@H]2O[C@@H](C)C[C@H]2C1	-8.7
CCc1ccc(CN2C[C@@H](C)C3(CCN(CC(=O)N(C)C)C3=O)C2)o1 (stereo not given in full)	-6.86
O=C(c1c[nH]cn1)N1CCOCC2(C1)CN(c1ccccc1)C(=O)CO2 (stereo not given)	-13.7
O=C(N1CCCC1)N1CCOCC2(CCN(Cc3cccs3)C2)C1 (stereo not given)	29.2
c1cc2c(cc1CN1CC[C@H]3[C@H]1CCN3CC1CC1)OCO2	-1.51
CC(C)N1CCc2[nH]nc(C(=O)N3CCOCC3)c2C1	-12.9
O=C(NCC1CC1)c1n[nH]c2c1CNCC2	-10.7
Cc1ccc(CN2C[C@@H]3CCN(Cc4cccnc4)C(=O)[C@H]3C2)s1	14.5
CC1c2ncc(CNC(=O)C3CC3)n2CCN1Cc1cccnc1 (stereo not given)	-5.38
Cc1ccc(CN2CCOCC3(CCN(Cc4cccs4)C3)C2)o1 (stereo not given)	0.0959
COc1ccc(CN2CCc3nnc(COCCN(C)C)n3CC2)cc1	-17.3
Fc1cnc(N2C[C@@H]3COC[C@]3(COc3ccccn3)C2)nc1	19.5
CC(C)N1CCc2[nH]nc(C(=O)N3CCN(C)CC3)c2C1	-1.5
Cc1cccnc1N1CC2(CCN(Cc3cccnc3)C2)C1	16.3
